Reference: patent US11840489B2, “Symbiosis-promoting agent and method for promoting symbiosis of arbuscular mycorrhizal fungi” (TOYOTA JIDOSHA KABUSHIKI KAISHA, priority 2020, dated 2023)

What was measured:
[1] = system: arbuscular mycorrhizal fungi (Rhizophagus irregularis DAOM197198); assay: Infection rate of arbuscular mycorrhizal fungi in roots of Lotus japonicus grown in supplemented soil (Example 2); format: in vivo; settings: Lotus japonicus, 4,000 spores, 4 weeks, FIG. 2
Procedure: Specifically, plants of Leguminosae (Lotus japonicus) were infected with arbuscular mycorrhizal fungi (Rhizophagus irregularis DAOM197198) in soil supplemented with GSSG, and the infection rate (%) of the mycorrhizal fungi invaded inside the roots was determined.
At the outset, the medium (one-tenth of the amount, Hoagland No. 2 basal salt mixture (SIGMA), 0.1 mM KNO3) was added to fertilizer-free soil. Also, control soil supplemented with spores of arbuscular mycorrhizal fungi (4,000 or 6,000 spores) and soil supplemented with spores of arbuscular mycorrhizal fungi (4,000 spores) and GSSG (10 or 100 microM) were prepared. Subsequently, seeds of Lotus japonicus (3 days after seeding) that had germinated in agar medium were transplanted therein. The plants were allowed to grow at 23 degrees C. with 16-hour light and 8-hour dark cycles for 4 weeks. Thereafter, Lotus japonicus was dug out, the arbuscular mycorrhizal fungi inside the root were stained with ink, and the infection rate of the mycorrhizal fungi (the amount of hyphae per root length (%)) was determined with observation under a microscope.

[2] = system: root nodule bacteria (Mesorhizobium loti); assay: Root nodule bacterial infection of Lotus japonicus: root nodules and infection hyphae (Comparative Example 1); format: in vivo; settings: 10 or 100 microM, FIG. 5
Procedure: In this comparative example, root nodule bacteria from Lotus japonicus plants (Mesorhizobium loti, a transformant comprising a fluorescent protein (DsRED) introduced thereinto) were used. Vermiculite was supplemented with B&D medium (Broughton and Dilworth, 1971), KNO3 (final concentration: 0.1 mM), root nodule bacteria, and oxidized glutathione at 0, 10, or 100 microM to prepare media. The resulting media (50 ml) were added to 300 ml of fertilizer-free soil (vermiculite) in a pot, and young plants of Lotus japonicus 3 days after seeding were planted therein. The infection hyphae that serve as the routes of infection with root nodule bacteria formed in the root hair cells of Lotus japonicus and the root nodules that are symbiotic organs formed in the roots of Lotus japonicus were examined 1 week and 2 weeks after the growth.

[3] = system: arbuscular mycorrhizal fungi (Rhizophagus irregularis DAOM197198); assay: Infection rate of arbuscular mycorrhizal fungi in roots of chives (Allium schoenoprasum) grown in supplemented soil (Example 3); format: in vivo; settings: chives, 4,000 spores, 10 or 100 microM in soil, 4 weeks; vs control; Dunnett's test, n=8; FIG. 3
Procedure: (§1) Specifically, monocotyledonous plants of Allium (chives; Allium schoenoprasum) were infected with arbuscular mycorrhizal fungi (Rhizophagus irregularis DAOM197198), and the infection rate (%) of the mycorrhizal fungi that had invaded inside the roots was determined.
(§2) Plants were infected with arbuscular mycorrhizal fungi in the same manner as in Example 2. That is, the medium (one-tenth of the amount, Hoagland No. 2 basal salt mixture (SIGMA), 0.1 mM KNO3) was added to fertilizer-free soil. As control samples, sterilized chive seeds were directly seeded in soil supplemented with spores of arbuscular mycorrhizal fungi (4,000 spores) and in soil supplemented with the spores and GSSG (10 or 100 microM). The plants were allowed to grow at 23 degrees C. with 16-hour light and 8-hour dark cycles for 4 weeks. Thereafter, chives were dug out, the arbuscular mycorrhizal fungi inside the root were stained with ink, and the infection rate of the mycorrhizal fungi (the amount of hyphae per root length (%)) was determined with observation under a microscope.

[4] = system: arbuscular mycorrhizal fungi (Rhizophagus irregularis DAOM197198); assay: Hyphal elongation of arbuscular mycorrhizal fungi in modified M medium, 4 weeks (Example 1); format: cell-based; settings: 10 microM or 100 microM in medium, 30 degrees C., vs control without addition, p less than 0.05, Dunnett's test, n 16-19, FIG. 1
[5] = system: arbuscular mycorrhizal fungi (Rhizophagus irregularis DAOM197198); settings: 30 degrees C., 1 week, FIG. 7
Procedure: The modified M medium (0.3% gerlite, Becard and Fortin, 1988 New phytologist, 108, 211-218) was supplemented with oxidized glutathione (10 microM or 100 microM), spores of arbuscular mycorrhizal fungi (Rhizophagus irregularis DAOM197198) were inoculated, and culture was conducted at 30 degrees C. for 4 weeks. For comparison, arbuscular mycorrhizal fungi were cultured in the same manner, except that oxidized glutathione was not added. The number of hyphae elongated outside of the circle (a radius of 7.5 mm) centered on the inoculated portion of the medium was counted, and the extent of elongation was determined based on the number of spores.
In the same manner as in Example 1, reduced glutathione (10 mM) was added to the modified M medium (0.3% gerlite), spores of arbuscular mycorrhizal fungi (Rhizophagus irregularis DAOM197198) were inoculated therein, and culture was conducted at 30 degrees C. for 1 week. For comparison, arbuscular mycorrhizal fungi were cultured in the same manner, except that reduced glutathione was not added.

[6] = system: arbuscular mycorrhizal fungi; assay: Infection rate of arbuscular mycorrhizal fungi in chives, soil with cystathionine, GSH or Phoron (Comparative Example 2); format: in vivo, Rhizophagus irregularis DAOM197198; settings: 500 spores, 1 month, FIG. 6; for infection rate (amount of hyphae per root length): 0.1 or 1 mM in soil, vs control with 500 spores
Procedure: as §1, §2
In the same manner as in Example 3, the medium (one-tenth of the amount, Hoagland No. 2 basal salt mixture (SIGMA), 0.1 mM KNO3) was added to fertilizer-free soil. As control samples, sterilized chive seeds were directly seeded in soil supplemented with spores of arbuscular mycorrhizal fungi (500 spores and 1,000 spores) and in soil supplemented with the 500 spores, cystathionine (0.1 or 1 mM), GSH (0.1 or 1 mM), and Phoron (0.1 or 1 mM). The plants were allowed to grow at 23 degrees C. with 16-hour light and 8-hour dark cycles for 1 month. Thereafter, chives were dug out, the arbuscular mycorrhizal fungi inside the root were stained with ink, and the infection potential of the mycorrhizal fungi (the amount of hyphae per root length (%)) was determined with observation under a microscope.

[7] = system: arbuscular mycorrhizal fungi; assay: Infection rate of arbuscular mycorrhizal fungi in chives, soil supplemented with cystathionine (Example 4); format: in vivo; settings: 1 mM in soil, 4 weeks, vs cystathionine-free control, FIG. 4
Procedure: Chives were used in this example. The medium (one-tenth of the amount, Hoagland No. 2 basal salt mixture (SIGMA), 0.1 mM KNO3) was added to fertilizer-free soil. As control samples, sterilized chive seeds were directly seeded in soil supplemented with spores of arbuscular mycorrhizal fungi (500 or 1,000 spores) and in soil supplemented with the spores and cystathionine (0.1 or 1 mM). The plants were allowed to grow at 23 degrees C. with 16-hour light and 8-hour dark cycles for 4 weeks. Thereafter, chives were dug out, the arbuscular mycorrhizal fungi inside the root were stained with ink, and the infection rate of the mycorrhizal fungi (the amount of hyphae per root length (%)) was determined with observation under a microscope.

oxidized glutathione
infection rate compared with control inoculated with 1.5 times greater amount of spores (6,000 spores) ([1]; 10 microM): equivalent | infection rate of the mycorrhizal fungi (amount of hyphae per root length) ([1]; 10 or 100 microM in soil, vs GSSG-free control (4,000 spores), Dunnett's test, n=8): significantly enhanced | infection rate compared with control inoculated with 1.5 times greater amount of spores (6,000 spores) ([1]; 100 microM): enhance | formation of infection hyphae ([2]; 1 week after the growth): significant inhibitory effects | formation of root nodules ([2]; 1 week after the growth): significant inhibitory effects | inhibitory effects on formation of infection hyphae ([2]; 2 weeks after the growth): not observed | inhibitory effects on formation of root nodules ([2]; 2 weeks after the growth): not observed | infection rate of the mycorrhizal fungi (amount of hyphae per root length) [3]: significantly enhanced | hyphal elongation (number of hyphae elongated outside circle of radius 7.5 mm, per number of spores) [4]: significant effects of promoting hyphal elongation

N[C@@H](CCC(=O)N[C@@H](CS)C(=O)NCC(=O)O)C(=O)O [reduced glutathione, N—(N-gamma-L-glutamyl-L-cysteinyl)glycine]
hyphal elongation of arbuscular mycorrhizal fungi at high concentration ([5]; 10 mM): no hyphal elongation was observed | spore survival ([5]; 10 mM): died | hyphal elongation of arbuscular mycorrhizal fungi ([5]; medium supplemented with reduced glutathione, vs no addition): deteriorated hyphal elongation | infection rate (amount of hyphae per root length) [6]: inhibited

NC(CCSCC(N)C(=O)O)C(=O)O (centres unmarked) [cystathionine, 2-amino-4-(2-amino-2-carboxy-ethyl)thio-butanoic acid]
infection rate of the mycorrhizal fungi (amount of hyphae per root length) [7]: significantly enhanced | infection rate compared with the sample supplemented with 1,000 spores ([6]; 1 mM): equivalent | infection rate (amount of hyphae per root length) [6]: enhanced

CC(C)=CC(=O)C=C(C)C [Phoron, reference compound]
infection rate (amount of hyphae per root length) [6]: inhibited
